Source: US20040191168A1, “Tumor cell killing by cell cycle checkpoint abrogation combined with Inhibition of the classical mitogen activated protein (map) kinase pathway” (priority 2000, published 2004)

Experiments:
colon tumor cells = conditions: mice (Sebolt-Leopold et al., 1999); cited from earlier work
[1] = Phase I and pharmacokinetic studies (Fuse et al., 1999); cited from earlier work
T47D cells = assay: Colony forming (clonogenic) assay in T47D cells; assay type: cell-based, human; conditions: mock irradiated, 25 μM PD98059, 150 nM UCN-01, replated 48 h, ± SEM
Method: (§1) Colony forming (clonogenic) assay. Cells were plated 36 h prior to experimentation. Cells were pre-treated with MEK1/2 inhibitor as indicated, 2 h prior to exposure. Cells were irradiated (2 Gy). After a further 48 h, cells were isolated by tryptic digestion and single cell suspensions plated on Linbro® plates at densities of 500 cells/well and 1000 cells/well. Colony formation was defined as a colony of 50 cells or greater, 10 days after plating.

DU145 cells = assay: Colony forming (clonogenic) assay in DU145 cells; assay type: cell-based, human; conditions: 25 μM PD98059, 150 nM UCN-01, replated 48 h, ± SEM
Method: as §1

MCF7 cells = assay: Colony forming (clonogenic) assay in MCF7 cells; assay type: cell-based, human; conditions: 25 μM PD98059, 150 nM UCN-01, replated 48 h, ± SEM
Method: as §1

MDA-MB-231 cells = assay: Colony forming (clonogenic) assay in MDA-MB-231 cells; assay type: cell-based, human; conditions: MDA-MB-231 (MDA), 25 μM PD98059, 150 nM UCN-01, replated 48 h, ± SEM
Method: as §1

| SMILES | in vivo growth of colon tumor cells (colon tumor cells) | plasma half-life [1] | clonogenic survival (colonies, normalized to control unirradiated cells = 100%) (T47D cells) [%] | clonogenic survival (colonies, normalized to control unirradiated cells = 100%) (DU145 cells; DU145, 2 Gy) [%] | clonogenic survival (colonies, normalized to control unirradiated cells = 100%) (DU145 cells; DU145, mock irradiated) [%] | clonogenic survival (colonies, normalized to control unirradiated cells = 100%) (MCF7 cells; MCF7, 2 Gy) [%] | clonogenic survival (colonies, normalized to control unirradiated cells = 100%) (MCF7 cells; MCF7, mock irradiated) [%] | clonogenic survival (colonies, normalized to control unirradiated cells = 100%) (MDA-MB-231 cells; 2 Gy) [%] | clonogenic survival (colonies, normalized to control unirradiated cells = 100%) (MDA-MB-231 cells; mock irradiated) [%] |
| --- | --- | --- | --- | --- | --- | --- | --- | --- | --- |
| O=C(NOCC1CC1)c1ccc(F)c(F)c1Nc1ccc(I)cc1Cl [PD184352] | inhibit the in vivo growth of colon tumor cells in mice |  |  |  |  |  |  |  |  |
| CN[C@@H]1C[C@H]2O[C@@](C)([C@@H]1OC)n1c3ccccc3c3c4c(c5c6ccccc6n2c5c31)C(=O)N[C@H]4O [UCN-01, 7-hydroxystaurosporine] |  | very long plasma half-life | 103 ± 8 | 68 ± 2 | 82 ± 4 | 44 ± 3 | 69 ± 6 | 55 ± 2 | 97 ± 3 |
